Experiments:
Format in all cases: functional
[1] = tested on: SR; experiment: Growth inhibition of human SR cells at 10 uM incubated for 48 hrs by sulforhodamine B assay relative to control; conditions: read-out: GI
[2] = tested on: EKVX; experiment: Growth inhibition of human EKVX cells at 10 uM incubated for 48 hrs by sulforhodamine B assay relative to control; conditions: read-out: GI
[3] = tested on: NCI-H23; experiment: Growth inhibition of human NCI-H23 cells at 10 uM incubated for 48 hrs by sulforhodamine B assay relative to control; conditions: read-out: GI
[4] = tested on: COLO 205; experiment: Growth inhibition of human COLO 205 cells at 10 uM incubated for 48 hrs by sulforhodamine B assay relative to control; conditions: read-out: GI
[5] = tested on: SF-268; experiment: Growth inhibition of human SF-268 cells at 10 uM incubated for 48 hrs by sulforhodamine B assay relative to control; conditions: read-out: GI
[6] = tested on: SF-295; experiment: Growth inhibition of human SF-295 cells at 10 uM incubated for 48 hrs by sulforhodamine B assay relative to control; conditions: read-out: GI
[7] = tested on: SF-539; experiment: Growth inhibition of human SF-539 cells at 10 uM incubated for 48 hrs by sulforhodamine B assay relative to control; conditions: read-out: GI
[8] = tested on: LOX IMVI; experiment: Growth inhibition of human LOX IMVI cells at 10 uM incubated for 48 hrs by sulforhodamine B assay relative to control; conditions: read-out: GI
[9] = tested on: UACC-257; experiment: Growth inhibition of human UACC-257 cells at 10 uM incubated for 48 hrs by sulforhodamine B assay relative to control; conditions: read-out: GI
[10] = tested on: OVCAR-3; experiment: Growth inhibition of human OVCAR-3 cells at 10 uM incubated for 48 hrs by sulforhodamine B assay relative to control; conditions: read-out: GI
[11] = tested on: OVCAR-4; experiment: Growth inhibition of human OVCAR-4 cells at 10 uM incubated for 48 hrs by sulforhodamine B assay relative to control; conditions: read-out: GI
[12] = tested on: 786-0; experiment: Growth inhibition of human 786-0 cells at 10 uM incubated for 48 hrs by sulforhodamine B assay relative to control; conditions: read-out: GI
[13] = tested on: A498; experiment: Growth inhibition of human A498 cells at 10 uM incubated for 48 hrs by sulforhodamine B assay relative to control; conditions: read-out: GI
[14] = tested on: MCF7; experiment: Growth inhibition of human MCF7 cells at 10 uM incubated for 48 hrs by sulforhodamine B assay relative to control; conditions: read-out: GI
[15] = tested on: Hs-578T; experiment: Growth inhibition of human Hs-578T cells at 10 uM incubated for 48 hrs by sulforhodamine B assay relative to control; conditions: read-out: GI
[16] = tested on: SK-MEL-2; experiment: Growth inhibition of human SK-MEL-2 cells at 10 uM incubated for 48 hrs by sulforhodamine B assay relative to control; conditions: read-out: GI
[17] = tested on: RPMI-8226; experiment: Growth inhibition of human RPMI-8226 cells incubated for 48 hrs by sulforhodamine B assay
[18] = tested on: SR; experiment: Growth inhibition of human SR cells incubated for 48 hrs by sulforhodamine B assay
[19] = tested on: EKVX; experiment: Growth inhibition of human EKVX cells incubated for 48 hrs by sulforhodamine B assay
[20] = tested on: NCI-H226; experiment: Growth inhibition of human NCI-H226 cells incubated for 48 hrs by sulforhodamine B assay
[21] = tested on: HCC 2998; experiment: Growth inhibition of human HCC 2998 cells incubated for 48 hrs by sulforhodamine B assay
[22] = tested on: HT-29; experiment: Growth inhibition of human HT-29 cells incubated for 48 hrs by sulforhodamine B assay
[23] = tested on: SF-268; experiment: Growth inhibition of human SF-268 cells incubated for 48 hrs by sulforhodamine B assay
[24] = tested on: Malme-3M; experiment: Growth inhibition of human Malme-3M cells incubated for 48 hrs by sulforhodamine B assay
[25] = tested on: M14; experiment: Growth inhibition of human M14 cells incubated for 48 hrs by sulforhodamine B assay
[26] = tested on: UACC-62; experiment: Growth inhibition of human UACC-62 cells incubated for 48 hrs by sulforhodamine B assay
[27] = tested on: OVCAR-4; experiment: Growth inhibition of human OVCAR-4 cells incubated for 48 hrs by sulforhodamine B assay
[28] = tested on: OVCAR-5; experiment: Growth inhibition of human OVCAR-5 cells incubated for 48 hrs by sulforhodamine B assay
[29] = tested on: SK-OV-3; experiment: Growth inhibition of human SK-OV-3 cells incubated for 48 hrs by sulforhodamine B assay
[30] = tested on: A498; experiment: Growth inhibition of human A498 cells incubated for 48 hrs by sulforhodamine B assay
[31] = tested on: ACHN; experiment: Growth inhibition of human ACHN cells incubated for 48 hrs by sulforhodamine B assay
[32] = tested on: TK-10; experiment: Growth inhibition of human TK-10 cells incubated for 48 hrs by sulforhodamine B assay
[33] = tested on: DU-145; experiment: Growth inhibition of human DU-145 cells incubated for 48 hrs by sulforhodamine B assay
[34] = tested on: T47D; experiment: Growth inhibition of human T47D cells incubated for 48 hrs by sulforhodamine B assay
[35] = tested on: MDA-MB-468; experiment: Growth inhibition of human MDA-MB-468 cells incubated for 48 hrs by sulforhodamine B assay
[36] = read-out: LC50 (the source's name)

Molecule O=C(Cn1cnc2ccccc21)Nc1ccc(-c2nc3ccccc3s2)cc1 has an inhibition of growth at 10 µM [1] of 60%, an inhibition of growth at 10 µM [2] of 46.8% and an inhibition of growth at 10 µM [3] of 51.5%. The inhibition of growth at 10 µM [4] was 22.5%, the inhibition of growth at 10 µM [5] was 14.7% and the inhibition of growth at 10 µM [6] was 56.7%. The inhibition of growth at 10 µM [7] was 22.9%, the inhibition of growth at 10 µM [8] was 44.6% and the inhibition of growth at 10 µM [9] was 37.9%. For the same molecule, the inhibition of growth at 10 µM [10] was 35.8%, the inhibition of growth at 10 µM [11] was 57.9% and the inhibition of growth at 10 µM [12] was 20.5%. For the same molecule, the inhibition of growth at 10 µM [13] was 33.2%, the inhibition of growth at 10 µM [14] was 50.6% and the inhibition of growth at 10 µM [15] was 8.79%.
O=C(CNc1nc(-c2ccc(Cl)cc2)cs1)Nc1ccc(-c2nc3ccccc3s2)cc1 was tested, and the inhibition of growth at 10 µM [1] was 10.3%, the inhibition of growth at 10 µM [2] was -2.38% and the inhibition of growth at 10 µM [3] was 12.4%. For the same molecule, the inhibition of growth at 10 µM [4] was 6.21%, the inhibition of growth at 10 µM [5] was 9.23% and the inhibition of growth at 10 µM [6] was 1.37%. For the same molecule, the inhibition of growth at 10 µM [7] was 3.03%, the inhibition of growth at 10 µM [8] was 4.39% and the inhibition of growth at 10 µM [9] was -0.39%. The inhibition of growth at 10 µM [10] was 5.97%, the inhibition of growth at 10 µM [11] was 29.5% and the inhibition of growth at 10 µM [12] was -9.09%. For the same molecule, the inhibition of growth at 10 µM [13] was -2.14%, the inhibition of growth at 10 µM [14] was 70.2% and the inhibition of growth at 10 µM [15] was 8.73%.
CN1CCN(CC(=O)Nc2ccc(-c3nc4ccccc4s3)cc2)CC1 gave an inhibition of growth at 10 µM [1] of 93.7%, an inhibition of growth at 10 µM [2] of 16.3% and an inhibition of growth at 10 µM [3] of 17.8%. The inhibition of growth at 10 µM [4] was 60.3%, the inhibition of growth at 10 µM [5] was 17% and the inhibition of growth at 10 µM [6] was 8.86%. The inhibition of growth at 10 µM [7] was 132%, the inhibition of growth at 10 µM [8] was 134% and the inhibition of growth at 10 µM [9] was -5.35%. For the same molecule, the inhibition of growth at 10 µM [10] was 0.78%, the inhibition of growth at 10 µM [11] was 12.7% and the inhibition of growth at 10 µM [12] was 21.3%. The inhibition of growth at 10 µM [13] was 40.5%, the inhibition of growth at 10 µM [14] was 63.2% and the inhibition of growth at 10 µM [15] was 6.34%.
Molecule O=C(CNc1ccc(Cl)cc1)Nc1ccc(-c2nc3ccccc3s2)cc1 has an inhibition of growth at 10 µM [1] of 88.5%, an inhibition of growth at 10 µM [3] of 60.9% and an inhibition of growth at 10 µM [4] of 53%. The inhibition of growth at 10 µM [5] was 75.9%, the inhibition of growth at 10 µM [6] was 5.37% and the inhibition of growth at 10 µM [7] was 21.9%. The inhibition of growth at 10 µM [8] was 141%, the inhibition of growth at 10 µM [16] was 21.5% and the inhibition of growth at 10 µM [9] was 9.09%. For the same molecule, the inhibition of growth at 10 µM [10] was 71.1%, the inhibition of growth at 10 µM [11] was 76.9% and the inhibition of growth at 10 µM [12] was 73%. The inhibition of growth at 10 µM [14] was 88.5%, the inhibition of growth at 10 µM [15] was 15.9% and the GI50 [17] was 2.52 µM. It also gave an LC50 [17] of over 100 µM, a TGI [17] of 6.73 µM and a GI50 [18] of 1.62 µM. For the same molecule, the LC50 [18] was over 100 µM, the TGI [18] was 5.76 µM and the GI50 [19] was 4.36 µM. The LC50 [19] was 66.9 µM, the TGI [19] was 19.1 µM and the GI50 [20] was 2.25 µM. The LC50 [20] was over 100 µM, the TGI [20] was 7.1 µM and the GI50 [21] was 1.9 µM. It also gave a TGI [21] of 3.54 µM, a CC50 [21, 36] of 6.58 µM and a GI50 [22] of 1.96 µM. It also gave an LC50 [22] of 8.17 µM, a TGI [22] of 4 µM and a GI50 [23] of 2 µM. The LC50 [23] was 15 µM, the TGI [23] was 4.76 µM and the GI50 [24] was 1.98 µM. It also gave a TGI [24] of 4.22 µM, a CC50 [24, 36] of 8.99 µM and a GI50 [25] of 1.78 µM. The TGI [25] was 3.84 µM, the CC50 [25, 36] was 8.28 µM and the GI50 [26] was 1.7 µM. For the same molecule, the LC50 [26] was 19.4 µM, the TGI [26] was 4.22 µM and the GI50 [27] was 2.24 µM. For the same molecule, the LC50 [27] was 42.3 µM, the TGI [27] was 8.49 µM and the GI50 [28] was 2.26 µM. The LC50 (concentration killing 50% of cells) [28] was 23.9 µM, the TGI [28] was 5.8 µM and the GI50 [29] was 4.57 µM. For the same molecule, the LC50 (concentration killing 50% of cells) [29] was over 100 µM, the TGI [29] was 61.8 µM and the GI50 [30] was 13 µM. The TGI [30] was 25.8 µM, the CC50 [30, 36] was 50.9 µM and the GI50 [31] was 2.31 µM. For the same molecule, the LC50 [31] was 18.2 µM, the TGI [31] was 5.57 µM and the GI50 [32] was 2.2 µM. For the same molecule, the LC50 [32] was 21.5 µM, the TGI [32] was 5.84 µM and the GI50 [33] was 3.34 µM. For the same molecule, the LC50 (concentration killing 50% of cells) [33] was 32.1 µM, the TGI [33] was 10.3 µM and the GI50 [34] was 1.86 µM. The LC50 (concentration killing 50% of cells) [34] was over 100 µM, the TGI [34] was 5.94 µM and the GI50 [35] was 0.0238 µM. The TGI [35] was 0.353 µM and the CC50 [35, 36] was 6.19 µM.
